Patent US12280039B2, “Cancer vaccine compositions and methods of use thereof” (priority 2018, dated 2025)

System: live 4T1 tumor cells
Experiment: Serum IgG antibody binding to live 4T1 tumor cells
Type: in vivo, mice
Conditions: inactivated 4T1 vaccine day 1 and 14; serum 1:1000 dilution
Protocol: The vaccines were given subcutaneously in equal volumes in both the left and right forelimb of the mice, close to the foot. Mice received 1.7×10^6 cells per mouse per vaccine. Vaccines were given on day 1 and then again on day 14. Mice were euthanized 8 days after the booster vaccine was given and spleen and blood was collected. The serum from these mice was screened against live 4T1 tumor cells for IgG antibody binding by incubating serum with the cells at either a 1:500 or a 1:1000 dilution, staining with a fluorescently-labeled donkey anti-mouse secondary antibody, then subtracting out the background staining (normal mouse serum at 1:500 and 1:1000).

SMILES: CC(C)Cn1cnc2c(N)nc3ccccc3c21 [Imiquimod, imiquimod]
- serum IgG binding to live 4T1 cells (staining): variable amounts
